Measurements: ChEMBL document CHEMBL1159132, “A small library of peptidomimetics to systematically vary and test the effects of X1 constraints” (Bioorg Med Chem Lett, 1996)
Where “and” joins values, the source holds several entries; their conditions need not be identical. Identical values can stand only once.

Experiment: Inhibition of radiolabeled neuropeptide FF binding to neuropeptide FF receptors in rat spinal cord
Design: concentration or dose not given beside the values
Conditions: concentration not given here

Structure (SMILES) | inhibition
CC(C)[C@H]1CC1(NC(=O)[C@H](Cc1ccccc1)NC(=O)[C@@H](C)NC(=O)[C@H](C)NC(=O)[C@@H](N)Cc1ccc(O)cc1)C(=O)N[C@@H](CCCN=C(N)N)C(=O)N[C@@H](Cc1ccccc1)C(N)=O (single isomer, unassigned; form 2) | 27%
CC(C)C[C@@H](NC(=O)[C@H](Cc1ccccc1)NC(=O)[C@@H](C)NC(=O)[C@H](C)NC(=O)[C@@H](N)Cc1ccc(O)cc1)C(=O)N[C@@H](CCCN=C(N)N)C(=O)N[C@@H](Cc1ccccc1)C(N)=O | 69% and 63%
CC(C)C[C@H](NC(=O)[C@H](Cc1ccccc1)NC(=O)CNC(=O)CNC(=O)[C@@H](N)Cc1ccc(O)cc1)C(=O)N[C@@H](CCCN=C(N)N)C(=O)N[C@@H](Cc1ccccc1)C(N)=O | 98% and 84%
CC(C)[C@H]1CC1(NC(=O)[C@H](Cc1ccccc1)NC(=O)[C@@H](C)NC(=O)[C@H](C)NC(=O)[C@@H](N)Cc1ccc(O)cc1)C(=O)N[C@@H](CCCN=C(N)N)C(=O)N[C@@H](Cc1ccccc1)C(N)=O (single isomer, unassigned; form 1) | 32%
CC(C)C[C@H](NC(=O)[C@H](Cc1ccccc1)NC(=O)CNC(=O)[C@H](C)NC(=O)[C@@H](N)Cc1ccc(O)cc1)C(=O)N[C@@H](CCCN=C(N)N)C(=O)N[C@@H](Cc1ccccc1)C(N)=O | 60% and 76%
CC(C)[C@H]1C[C@@]1(NC(=O)[C@H](Cc1ccccc1)NC(=O)[C@@H](C)NC(=O)CNC(=O)[C@@H](N)Cc1ccc(O)cc1)C(=O)N[C@@H](CCCN=C(N)N)C(=O)N[C@@H](Cc1ccccc1)C(N)=O | 22% and 34% and 43%
CC(C)C[C@H](NC(=O)[C@H](Cc1ccccc1)NC(=O)[C@@H](C)NC(=O)[C@H](C)NC(=O)[C@@H](N)Cc1ccc(O)cc1)C(=O)N[C@@H](CCCN=C(N)N)C(=O)N[C@@H](Cc1ccccc1)C(N)=O | 58% and 65%
CC(C)[C@H]1CC1(NC(=O)[C@H](Cc1ccccc1)NC(=O)[C@@H](C)NC(=O)CNC(=O)[C@@H](N)Cc1ccc(O)cc1)C(=O)N[C@@H](CCCN=C(N)N)C(=O)N[C@@H](Cc1ccccc1)C(N)=O (single isomer, unassigned) | 27%
CC(C)[C@H]1CC1(NC(=O)[C@H](Cc1ccccc1)NC(=O)CNC(=O)CNC(=O)[C@@H](N)Cc1ccc(O)cc1)C(=O)N[C@@H](CCCN=C(N)N)C(=O)N[C@@H](Cc1ccccc1)C(N)=O (single isomer, unassigned) | 57%
CC(C)C[C@H](NC(=O)[C@H](Cc1ccccc1)NC(=O)[C@@H](C)NC(=O)CNC(=O)[C@@H](N)Cc1ccc(O)cc1)C(=O)N[C@@H](CCCN=C(N)N)C(=O)N[C@@H](Cc1ccccc1)C(N)=O | 81% and 75%
CC(C)C[C@@H](NC(=O)[C@H](Cc1ccccc1)NC(=O)CNC(=O)[C@H](C)NC(=O)[C@@H](N)Cc1ccc(O)cc1)C(=O)N[C@@H](CCCN=C(N)N)C(=O)N[C@@H](Cc1ccccc1)C(N)=O | 35% and 40%
CC(C)C[C@@H](NC(=O)[C@H](Cc1ccccc1)NC(=O)CNC(=O)CNC(=O)[C@@H](N)Cc1ccc(O)cc1)C(=O)N[C@@H](CCCN=C(N)N)C(=O)N[C@@H](Cc1ccccc1)C(N)=O | 48% and 31%
CC(C)[C@H]1C[C@@]1(NC(=O)[C@H](Cc1ccccc1)NC(=O)[C@@H](C)NC(=O)[C@H](C)NC(=O)[C@@H](N)Cc1ccc(O)cc1)C(=O)N[C@@H](CCCN=C(N)N)C(=O)N[C@@H](Cc1ccccc1)C(N)=O | 32% and 35%
CC(C)[C@@H]1C[C@]1(NC(=O)[C@H](Cc1ccccc1)NC(=O)[C@@H](C)NC(=O)[C@H](C)NC(=O)[C@@H](N)Cc1ccc(O)cc1)C(=O)N[C@@H](CCCN=C(N)N)C(=O)N[C@@H](Cc1ccccc1)C(N)=O | 30% [middle of 4 runs]
CC(C)C[C@@H](NC(=O)[C@H](Cc1ccccc1)NC(=O)[C@@H](C)NC(=O)CNC(=O)[C@@H](N)Cc1ccc(O)cc1)C(=O)N[C@@H](CCCN=C(N)N)C(=O)N[C@@H](Cc1ccccc1)C(N)=O | 28% and 48%
CC(C)[C@@H]1C[C@]1(NC(=O)[C@H](Cc1ccccc1)NC(=O)[C@@H](C)NC(=O)CNC(=O)[C@@H](N)Cc1ccc(O)cc1)C(=O)N[C@@H](CCCN=C(N)N)C(=O)N[C@@H](Cc1ccccc1)C(N)=O | 29% [middle of 4 runs]
